Test results from ChEMBL document CHEMBL1201862, “PubChem BioAssay data set” (2004).
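Compound exposure: 48 hours, 5 concentrations, 96-well plates. GI50: concentration for 50% inhibition of growth.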 Active and inactive are the calls of the source. No stated cut-off is given here; in the data, active = GI50 up to about 1.1 µM and inactive = higher.

What was measured:
Assay in all cases: NCI-60 cell line screen, 48 h
SW-620 = tested on: SW-620
SF-295 = tested on: SF-295
HCC 2998 = tested on: HCC 2998
NCI-H460 = tested on: NCI-H460
OVCAR-3 = tested on: OVCAR-3
SF-268 = tested on: SF-268
IGROV-1 = tested on: IGROV-1
SK-OV-3 = tested on: SK-OV-3
HCT-116 = tested on: HCT-116
RPMI-8226 = tested on: RPMI-8226
M14 = tested on: M14
U-251 = tested on: U-251
COLO 205 = tested on: COLO 205
UACC-62 = tested on: UACC-62
MDA-MB-231 = tested on: MDA-MB-231
NCI-H226 = tested on: NCI-H226
Hs-578T = tested on: Hs-578T
OVCAR-8 = tested on: OVCAR-8
SNB-75 = tested on: SNB-75
RXF 393 = tested on: RXF 393

Measured: GI50

Oc1[nH]c(Nc2cccc(CC(F)(F)F)c2)nc2ncnc1-2
inactive: SW-620 > 100 µM | SF-295 > 100 µM | HCC 2998 > 100 µM | NCI-H460 > 100 µM | OVCAR-3 > 100 µM | SF-268 > 100 µM | IGROV-1 > 100 µM | SK-OV-3 > 100 µM | HCT-116 > 100 µM | RPMI-8226 > 100 µM | M14 > 100 µM | U-251 > 100 µM | COLO 205 > 100 µM | UACC-62 > 100 µM | MDA-MB-231 > 100 µM | NCI-H226 > 100 µM | Hs-578T > 100 µM | OVCAR-8 > 100 µM | SNB-75 95.5 µM

O=c1[nH]nc(Cc2ccccc2)n1/N=C/c1c[nH]c2ccccc12
inactive: SW-620 > 100 µM | SF-295 27.7 µM | HCC 2998 > 100 µM | NCI-H460 > 100 µM | OVCAR-3 > 100 µM | SF-268 21.9 µM | IGROV-1 > 100 µM | SK-OV-3 96.2 µM | HCT-116 > 100 µM | RPMI-8226 > 100 µM | M14 > 100 µM | U-251 52.1 µM | COLO 205 > 100 µM | UACC-62 41.6 µM | MDA-MB-231 59 µM | NCI-H226 > 100 µM | Hs-578T 25.4 µM | OVCAR-8 > 100 µM | SNB-75 13.3 µM

CC(=O)/C=c1\[nH]/c(=C\C=C\c2ccccc2)c(=O)n1/C=C1\C(=O)Oc2ccccc2C1=O
inactive: SW-620 > 100 µM | OVCAR-3 > 100 µM | SF-268 > 100 µM | IGROV-1 > 100 µM | SK-OV-3 > 100 µM | HCT-116 > 100 µM | RPMI-8226 > 100 µM | M14 > 100 µM | U-251 > 100 µM | COLO 205 > 100 µM | UACC-62 > 100 µM | MDA-MB-231 > 100 µM | NCI-H226 > 100 µM | Hs-578T > 100 µM | OVCAR-8 > 100 µM | SNB-75 59.4 µM

Cc1cc(C)nc(NC(P(=O)(O)O)P(=O)(O)O)n1
inactive: SF-295 > 100 µM | HCC 2998 > 100 µM | NCI-H460 > 100 µM | OVCAR-3 > 100 µM | SF-268 > 100 µM | RXF 393 > 100 µM | IGROV-1 > 100 µM | SK-OV-3 > 100 µM | HCT-116 > 100 µM | M14 > 100 µM | COLO 205 > 100 µM | UACC-62 > 100 µM | MDA-MB-231 > 100 µM | NCI-H226 > 100 µM | Hs-578T > 100 µM | OVCAR-8 > 100 µM

CC(C)c1cc(CN(C)C)c(O)c(C(C)(C)C)c1
inactive: SW-620 20.2 µM | SF-295 19 µM | HCC 2998 16.1 µM | NCI-H460 17.3 µM | OVCAR-3 17.4 µM | SF-268 22 µM | RXF 393 18.8 µM | IGROV-1 47.1 µM | SK-OV-3 98.9 µM | HCT-116 36.9 µM | RPMI-8226 13.9 µM | M14 28.4 µM | U-251 16.4 µM | COLO 205 20.7 µM | UACC-62 54.1 µM | MDA-MB-231 36.2 µM | NCI-H226 21.5 µM | Hs-578T 22.6 µM | OVCAR-8 30.3 µM

O=C1CSC(/C=C/c2ccccc2)N1c1ccc(-n2c(-c3ccccc3)nc3ccccc3c2=O)cc1 (stereo unspecified)
inactive: SW-620 > 10 µM | SF-295 > 100 µM | HCC 2998 99.5 µM | NCI-H460 87.3 µM | OVCAR-3 > 100 µM | SF-268 95.5 µM | IGROV-1 74.3 µM | SK-OV-3 19.3 µM | HCT-116 > 100 µM | RPMI-8226 > 100 µM | M14 > 100 µM | U-251 > 100 µM | COLO 205 > 100 µM | UACC-62 45.1 µM | MDA-MB-231 > 100 µM | NCI-H226 48.8 µM | Hs-578T > 100 µM | OVCAR-8 > 100 µM | SNB-75 22.6 µM

ON=C1CCCCC(=NO)CCCC1
inactive: SW-620 > 100 µM | SF-295 > 100 µM | HCC 2998 > 100 µM | NCI-H460 > 100 µM | SF-268 > 100 µM | SK-OV-3 > 100 µM | HCT-116 > 100 µM | RPMI-8226 > 100 µM | U-251 > 100 µM | COLO 205 > 100 µM | UACC-62 > 100 µM | MDA-MB-231 > 100 µM | NCI-H226 > 100 µM | Hs-578T > 100 µM | OVCAR-8 > 100 µM | SNB-75 > 100 µM

Cn1/c(=N\N=C(\CNCCO)[C@@H](O)[C@@H]2OC(c3ccccc3)OC[C@H]2O)sc2ccccc21 (stereo partly specified)
inactive: SW-620 18 µM | SF-295 18.7 µM | HCC 2998 11.3 µM | NCI-H460 21.5 µM | OVCAR-3 16.4 µM | SF-268 15.5 µM | RXF 393 16.1 µM | IGROV-1 15.8 µM | SK-OV-3 18.4 µM | HCT-116 16 µM | M14 13.2 µM | U-251 17.3 µM | COLO 205 15.5 µM | UACC-62 16.9 µM | MDA-MB-231 15.2 µM | Hs-578T 14.8 µM | OVCAR-8 19.2 µM | SNB-75 16 µM

O=C1Nc2ccc(Br)cc2/C1=N/c1ccc(Cl)cc1
active: UACC-62 0.237 µM
inactive: SW-620 6.56 µM | SF-295 3.63 µM | HCC 2998 19.1 µM | NCI-H460 14.4 µM | OVCAR-3 15.8 µM | SF-268 14.6 µM | RXF 393 18.5 µM | SK-OV-3 40.8 µM | HCT-116 14.3 µM | RPMI-8226 4.39 µM | M14 20.7 µM | U-251 23.8 µM | COLO 205 1.78 µM | MDA-MB-231 15.5 µM | NCI-H226 23.4 µM | Hs-578T 33.6 µM | OVCAR-8 11.7 µM

C[C@]12CCC(=O)C=C1CC[C@@H]1[C@@H]2CC[C@]2(C)C(=O)[C@H](n3ccnc3)C[C@@H]12
inactive: SW-620 > 100 µM | SF-295 > 100 µM | NCI-H460 > 100 µM | SF-268 > 100 µM | RXF 393 > 100 µM | IGROV-1 > 100 µM | HCT-116 > 100 µM | RPMI-8226 > 100 µM | M14 > 100 µM | U-251 > 100 µM | COLO 205 > 100 µM | UACC-62 > 100 µM | MDA-MB-231 > 100 µM | NCI-H226 > 100 µM | Hs-578T > 100 µM | OVCAR-8 > 100 µM | SNB-75 > 100 µM

CC#CC#C/C=C1/C=CC2(CCCCO2)O1 (stereo unspecified)
inactive: SW-620 > 100 µM | SF-295 > 100 µM | HCC 2998 > 100 µM | NCI-H460 > 100 µM | SF-268 > 100 µM | IGROV-1 70.1 µM | SK-OV-3 > 100 µM | HCT-116 > 100 µM | M14 > 100 µM | U-251 > 100 µM | COLO 205 71.1 µM | UACC-62 86.5 µM | MDA-MB-231 > 100 µM | NCI-H226 > 100 µM | Hs-578T > 100 µM | OVCAR-8 > 100 µM | SNB-75 > 100 µM

Nc1ccc(C(=O)O)cc1 [AMINOBENZOIC ACID]
inactive: SW-620 > 100 µM | SF-295 > 100 µM | HCC 2998 > 100 µM | NCI-H460 > 100 µM | OVCAR-3 > 100 µM | SF-268 > 100 µM | IGROV-1 > 100 µM | HCT-116 > 100 µM | RPMI-8226 > 100 µM | M14 > 100 µM | U-251 > 100 µM | COLO 205 > 100 µM | MDA-MB-231 28.1 µM | NCI-H226 > 100 µM | Hs-578T > 100 µM | OVCAR-8 > 100 µM | SNB-75 > 100 µM

C=CC[C@H](C)CCC(=O)N1[C@H]2CC3CC[C@@]2(CS1(=O)=O)C3(C)C
inactive: SW-620 79.8 µM | SF-295 45.2 µM | HCC 2998 49.2 µM | NCI-H460 30.5 µM | SF-268 41.7 µM | RXF 393 49 µM | IGROV-1 > 100 µM | SK-OV-3 > 100 µM | HCT-116 48 µM | RPMI-8226 39.9 µM | M14 35.6 µM | U-251 56.1 µM | COLO 205 34.3 µM | UACC-62 > 100 µM | MDA-MB-231 > 100 µM | NCI-H226 51.5 µM | Hs-578T 30.6 µM | OVCAR-8 45.4 µM

NC(Cc1c[nH]c2ccc([N+](=O)[O-])cc12)C(=O)O (stereo unspecified)
inactive: SW-620 > 100 µM | SF-295 > 100 µM | OVCAR-3 > 100 µM | SF-268 > 100 µM | RXF 393 > 100 µM | IGROV-1 > 100 µM | SK-OV-3 > 100 µM | HCT-116 > 100 µM | RPMI-8226 > 100 µM | M14 > 100 µM | U-251 > 100 µM | COLO 205 > 100 µM | UACC-62 > 100 µM | MDA-MB-231 > 100 µM | NCI-H226 > 100 µM | Hs-578T 24.7 µM | OVCAR-8 > 100 µM | SNB-75 > 100 µM

CC(=O)OC1CCC2(C)C(CCC3C4CC=C(C5(C)OCCO5)C4(C)CCC32)C1 (stereo unspecified)
inactive: SW-620 21 µM | SF-295 26.1 µM | NCI-H460 20 µM | OVCAR-3 19.7 µM | SF-268 27.8 µM | RXF 393 17.7 µM | IGROV-1 24.2 µM | SK-OV-3 47.9 µM | HCT-116 20.1 µM | RPMI-8226 14.4 µM | M14 23 µM | U-251 18 µM | COLO 205 17.6 µM | UACC-62 19.9 µM | MDA-MB-231 33.2 µM | NCI-H226 25.9 µM | Hs-578T 23.3 µM | OVCAR-8 20.1 µM | SNB-75 28.8 µM
